In one assay the target is T1, NRIA /2A (Rattus norvegicus, UniProt P35439+Q00959).
T1 construct: expressed in transfected cells; host or cells: Xenopus laevis oocytes (cRNA micro-injection)
Nature of the assay: Electrophysiological assay at NMDA receptor subunits NR1A/2A expressed in Xenopus oocytes. The format is cell-based. Particulars: rat clones in Xenopus oocytes, currents activated by glutamate (100 μM) and glycine (1-100 μM). From the text:
(§1) Many of the properties of native NMDA receptors are seen in recombinant homomeric NR1 receptors expressed in Xenopus oocytes. These properties are altered by the NR2 subunits. Recombinant NMDA receptors expressed in Xenopus oocytes have been studied by voltage-clamp recording, as has developmental and regional expression of the mRNAs encoding NMDA receptor subunits. Electrophysiological assays were utilized to characterize the actions of compounds at NMDA receptors expressed in Xenopus oocytes.
(§2) Electrophysiological Assays at NMDA receptor subunits.
(§3) cDNA clones encoding the NR1A, NR2A, NR2B, and NR2C rat NMDA receptor subtypes were used. […] The clones were transformed into appropriate host bacteria and plasmid preparations were made with conventional DNA purification techniques. A sample of each clone was linearized by restriction enzyme digestion and cRNA was synthesized with T3 RNA polymerase. The cRNA was diluted to 400 ng/μl and stored in 1 μl aliquots at -80° C. until injection.
(§4) The Xenopus Oocyte Expression System
(§5) Follicle-enclosed oocytes were micro-injected with 1:1 mixtures of NR1A:NR2A, 2B or 2C; infecting 1-10 ng of RNA encoding each receptor subunit. NR1A encoding RNA was injected alone at ~20 ng. Oocytes were stored in Barth's medium containing (in mM):NaCl, 88; KCl, 1; CaCl2, 0.41; Ca(NO3)2, 0.33; MgSo4, 0.82 NaHCO3, 2.4; HEPES 5, pH 7.4, with 0.11 mg/ml gentamicin sulphate. While oocytes were still surrounded by enveloping ovarian tissues the Barth's medium was supplemented with 0.1% bovine serum.
(§6) Electrical recordings were made using a conventional two-electrode voltage clamp (Dagan TEV-200) over periods ranging between 3-21 days following injection. […] Drugs were applied by bath perfusion. Using oocytes expressing different subunit combinations of NMDA receptor, NMDA currents were activated by co-application of glutamate (100 μM) and glycine (1-100 μM). Inhibitory potency of the novel antagonists was assessed on responses elicited by fixed concentrations of glutamate and glycine, by measuring reductions in current induced by progressively increasing concentrations of antagonist. Concentration-inhibition curves were fit with equation 1.
(§7) in which Icontrol is the current evoked by agonists alone, pIC50 =-log IC50, IC50 is the concentration of antagonist that produces half maximal inhibition, and n is the slope factor. […] For incomplete curves analysis by fitting was unreliable and IC50 values were calculated by simple regression over linear portions of the curves (Origin: Microcal Software).

The target in the next assay is T2, NR1A /2B (Rattus norvegicus, UniProt P35439+Q00960).
T2 construct: expressed in transfected cells; host or cells: Xenopus laevis oocytes (cRNA micro-injection)
Nature of the assay: Electrophysiological assay at NMDA receptor subunits NR1A/2B expressed in Xenopus oocytes. Particulars: rat clones in Xenopus oocytes, currents activated by glutamate (100 μM) and glycine (1-100 μM). The format is cell-based.
Text: as §1, §2, §3, §4, §5, §6, §7

The next assay addresses T3, NR1A /2C (Rattus norvegicus, UniProt P35439+Q00961).
T3 construct: expressed in transfected cells; host or cells: Xenopus laevis oocytes (cRNA micro-injection)
Nature of the assay: Electrophysiological assay at NMDA receptor subunits NR1A/2C expressed in Xenopus oocytes. The format is cell-based. The note with it: rat clones in Xenopus oocytes, currents activated by glutamate (100 μM) and glycine (1-100 μM).
Text: as §1, §2, §3, §4, §5, §6, §7

Assay [1] concerns 6-Hydroxydopamine-lesioned rats. Nature of the assay: 6-OHDA Rat Assay: potentiation of contraversive rotation induced by L-DOPA methyl ester. The format is in vivo, Sprague-Dawley rats. The note with it: po; L-DOPA methyl ester 10 mg/kg SC; total contraversive rotations over 6 hour vs L-DOPA only. The procedure: Adult male Sprague-Dawley rats were anesthetized with chloral hydrate and unilateral lesions of the nigrostriatal dopamine system were accomplished by infusion of 8 μg of 6-hydroxydopamine HBr (6-OHDA) into the right medial forebrain bundle. […] A minimum of 3 weeks after surgery, the rotational behavior induced by apomorphine HCL 50 μg/kg subcutaneously (SC) was assessed. […] Rotational behavior was measured using an automatic rotometer system (Rotorat Rotational Activity System, MED Associates, Georgia, Vt.). Anti-parkinsonian activity was assessed as the ability of the compound to potentiate the contraversive rotation induced by L-DOPA methyl ester, 10 mg/kg SC, over a 6 hour period. Experiments were conducted using a crossover paradigm where each rat received either a vehicle plus L-DOPA, or the test compound plus L-DOPA, in randomized order. Rats were tested at 7 day intervals. In experiments in which the compound was tested orally, rats were food deprived for 16 hours. Statistical analysis between treatment groups were performed using a paired t-test.

Consider 20 compounds from patent publication US6284774A, “4-Benzyl piperidine alkylsulfoxide heterocycles and their use as subtype-selective NMDA receptor antagonists” (priority 2000, dated 2001).

By IC50 is commonly meant the midpoint of a concentration-inhibition curve.

Each structure is given as a SMILES string.

T2 sequence (Q00960 27-1482, other chains not shown): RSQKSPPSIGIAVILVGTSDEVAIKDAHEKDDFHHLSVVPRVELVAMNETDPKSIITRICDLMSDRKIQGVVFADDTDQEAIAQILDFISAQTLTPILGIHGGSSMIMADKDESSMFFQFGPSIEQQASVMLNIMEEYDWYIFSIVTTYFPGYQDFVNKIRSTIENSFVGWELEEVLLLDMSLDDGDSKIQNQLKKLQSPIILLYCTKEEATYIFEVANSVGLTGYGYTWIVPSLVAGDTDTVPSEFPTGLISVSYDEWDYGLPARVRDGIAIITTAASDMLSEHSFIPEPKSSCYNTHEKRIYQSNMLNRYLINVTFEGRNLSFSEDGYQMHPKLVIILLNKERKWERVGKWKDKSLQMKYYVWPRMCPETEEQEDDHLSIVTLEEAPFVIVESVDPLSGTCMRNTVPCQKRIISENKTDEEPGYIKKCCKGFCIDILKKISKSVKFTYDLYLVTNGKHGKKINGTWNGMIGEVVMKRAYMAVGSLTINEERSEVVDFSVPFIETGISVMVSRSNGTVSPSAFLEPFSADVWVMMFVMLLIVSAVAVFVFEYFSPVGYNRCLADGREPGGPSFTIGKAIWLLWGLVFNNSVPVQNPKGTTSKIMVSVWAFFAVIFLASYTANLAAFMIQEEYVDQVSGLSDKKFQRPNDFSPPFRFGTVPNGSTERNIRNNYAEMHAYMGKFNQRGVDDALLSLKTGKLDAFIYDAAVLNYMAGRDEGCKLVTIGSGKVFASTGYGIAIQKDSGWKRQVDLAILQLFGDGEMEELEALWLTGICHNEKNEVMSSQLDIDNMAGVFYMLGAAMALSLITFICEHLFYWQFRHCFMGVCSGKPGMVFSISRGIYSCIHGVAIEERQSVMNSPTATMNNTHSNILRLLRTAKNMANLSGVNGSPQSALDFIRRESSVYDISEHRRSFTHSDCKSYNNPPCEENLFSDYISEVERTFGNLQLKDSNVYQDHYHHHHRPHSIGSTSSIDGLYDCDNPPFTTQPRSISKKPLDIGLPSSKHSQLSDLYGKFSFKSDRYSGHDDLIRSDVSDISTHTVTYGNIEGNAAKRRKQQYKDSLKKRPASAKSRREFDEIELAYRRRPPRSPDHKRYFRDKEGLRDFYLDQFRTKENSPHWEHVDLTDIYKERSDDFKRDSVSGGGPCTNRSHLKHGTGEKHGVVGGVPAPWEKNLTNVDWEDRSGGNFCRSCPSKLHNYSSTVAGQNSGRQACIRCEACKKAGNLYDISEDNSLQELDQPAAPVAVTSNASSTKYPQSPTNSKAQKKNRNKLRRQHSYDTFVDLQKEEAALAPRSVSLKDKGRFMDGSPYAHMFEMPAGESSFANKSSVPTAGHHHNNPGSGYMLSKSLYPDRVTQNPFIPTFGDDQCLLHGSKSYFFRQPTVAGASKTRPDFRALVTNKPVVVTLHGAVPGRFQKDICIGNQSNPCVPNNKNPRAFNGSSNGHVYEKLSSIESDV
T3 sequence (Q00961 20-1237, other chains not shown): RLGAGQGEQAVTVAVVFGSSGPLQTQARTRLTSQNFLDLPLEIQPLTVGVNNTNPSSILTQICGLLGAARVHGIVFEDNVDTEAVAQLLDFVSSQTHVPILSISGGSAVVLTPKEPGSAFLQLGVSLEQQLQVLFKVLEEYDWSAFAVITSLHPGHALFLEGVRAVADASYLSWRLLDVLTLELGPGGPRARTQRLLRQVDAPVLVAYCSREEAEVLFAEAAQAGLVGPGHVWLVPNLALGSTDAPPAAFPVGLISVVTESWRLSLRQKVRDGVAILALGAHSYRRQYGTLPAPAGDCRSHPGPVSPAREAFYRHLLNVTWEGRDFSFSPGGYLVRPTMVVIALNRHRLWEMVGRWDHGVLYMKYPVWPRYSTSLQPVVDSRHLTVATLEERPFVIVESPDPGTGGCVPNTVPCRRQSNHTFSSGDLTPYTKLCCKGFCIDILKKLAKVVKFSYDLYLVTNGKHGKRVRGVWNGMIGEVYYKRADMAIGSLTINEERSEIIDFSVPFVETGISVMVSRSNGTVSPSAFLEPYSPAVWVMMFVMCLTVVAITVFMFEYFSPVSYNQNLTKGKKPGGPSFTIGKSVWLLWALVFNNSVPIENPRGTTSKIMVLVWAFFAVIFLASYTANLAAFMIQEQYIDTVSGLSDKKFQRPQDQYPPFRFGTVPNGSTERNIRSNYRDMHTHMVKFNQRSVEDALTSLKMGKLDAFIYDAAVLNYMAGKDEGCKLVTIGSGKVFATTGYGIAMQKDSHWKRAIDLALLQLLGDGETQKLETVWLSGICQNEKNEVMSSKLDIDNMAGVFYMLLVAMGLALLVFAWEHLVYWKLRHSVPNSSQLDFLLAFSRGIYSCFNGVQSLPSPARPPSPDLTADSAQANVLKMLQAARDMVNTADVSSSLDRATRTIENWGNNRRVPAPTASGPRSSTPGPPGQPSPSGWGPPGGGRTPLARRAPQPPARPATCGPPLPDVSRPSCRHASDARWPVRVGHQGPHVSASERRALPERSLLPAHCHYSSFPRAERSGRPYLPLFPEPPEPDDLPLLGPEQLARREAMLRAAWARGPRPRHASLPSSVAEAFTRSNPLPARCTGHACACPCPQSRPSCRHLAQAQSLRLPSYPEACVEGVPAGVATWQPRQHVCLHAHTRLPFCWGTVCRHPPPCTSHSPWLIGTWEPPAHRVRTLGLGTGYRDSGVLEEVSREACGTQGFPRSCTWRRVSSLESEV
T1 sequence (Q00959 23-1464, other chains not shown): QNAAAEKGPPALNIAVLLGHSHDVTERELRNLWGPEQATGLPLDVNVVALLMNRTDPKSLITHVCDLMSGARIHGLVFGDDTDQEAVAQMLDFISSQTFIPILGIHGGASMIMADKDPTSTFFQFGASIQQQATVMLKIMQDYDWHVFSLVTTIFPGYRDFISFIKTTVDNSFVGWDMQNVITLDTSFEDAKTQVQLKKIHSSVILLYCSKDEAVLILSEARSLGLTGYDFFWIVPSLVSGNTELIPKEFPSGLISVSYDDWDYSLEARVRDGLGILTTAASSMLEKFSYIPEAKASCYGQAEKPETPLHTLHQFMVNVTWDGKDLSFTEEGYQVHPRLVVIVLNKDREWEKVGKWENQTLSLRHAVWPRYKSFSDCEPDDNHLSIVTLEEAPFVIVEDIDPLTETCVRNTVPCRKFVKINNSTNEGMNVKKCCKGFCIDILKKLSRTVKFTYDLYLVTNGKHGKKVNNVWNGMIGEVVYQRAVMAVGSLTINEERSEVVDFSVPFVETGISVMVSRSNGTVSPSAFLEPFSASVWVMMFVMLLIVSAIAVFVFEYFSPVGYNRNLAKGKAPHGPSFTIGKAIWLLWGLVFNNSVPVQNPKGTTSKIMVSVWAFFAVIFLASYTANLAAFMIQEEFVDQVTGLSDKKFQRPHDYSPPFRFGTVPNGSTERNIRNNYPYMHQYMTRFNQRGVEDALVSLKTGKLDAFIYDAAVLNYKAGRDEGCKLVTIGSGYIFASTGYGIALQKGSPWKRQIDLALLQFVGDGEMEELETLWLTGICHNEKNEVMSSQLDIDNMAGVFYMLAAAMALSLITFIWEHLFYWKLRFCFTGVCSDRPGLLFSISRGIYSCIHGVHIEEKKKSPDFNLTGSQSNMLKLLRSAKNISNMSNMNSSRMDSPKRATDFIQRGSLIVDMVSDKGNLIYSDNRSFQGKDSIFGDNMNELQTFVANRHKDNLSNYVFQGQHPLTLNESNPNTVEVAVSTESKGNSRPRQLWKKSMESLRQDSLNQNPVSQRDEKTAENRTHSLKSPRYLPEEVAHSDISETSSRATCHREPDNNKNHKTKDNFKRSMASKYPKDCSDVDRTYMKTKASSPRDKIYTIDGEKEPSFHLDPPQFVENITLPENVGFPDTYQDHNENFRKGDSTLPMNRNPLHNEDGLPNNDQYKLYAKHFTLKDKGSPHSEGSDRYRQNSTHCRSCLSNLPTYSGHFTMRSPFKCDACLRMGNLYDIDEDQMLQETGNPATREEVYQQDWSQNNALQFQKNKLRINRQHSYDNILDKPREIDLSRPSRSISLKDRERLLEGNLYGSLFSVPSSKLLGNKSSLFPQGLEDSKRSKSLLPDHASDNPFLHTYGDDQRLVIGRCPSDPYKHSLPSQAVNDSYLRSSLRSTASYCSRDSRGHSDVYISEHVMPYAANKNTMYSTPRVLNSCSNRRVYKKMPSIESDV

For `COc1ccc(CC2CCN(CC[S+]([O-])c3ccc4[nH]c(=O)oc4c3)CC2)cc1` (stereo not drawn) [Example 5, 6-{2-[4-(4-methoxybenzyl)-piperidin-1-yl]-ethanesulfinyl}-3H-benzooxazol-2-one], the IC50 turned out to be 55 µM on NRIA /2A, 0.1 µM on NR1A /2B and 150 µM at NR1A /2C. For the same compound, the “6-OHDA rat MED (minimum effective dose)” value in assay [1] is recorded as greater than 10 mg/kg.

For `O=c1[nH]c2cc(Cl)c([S+]([O-])CCN3CCC(Cc4ccccc4)CC3)cc2o1` (stereo not drawn) [Example 17, 6-[2-(4-benzylpiperidin-1-yl)ethanesulfinyl]-5-chloro-3H-benzooxazol-2-one], the values for the IC50 on NRIA /2A, at NR1A /2B and on NR1A /2C were 40 µM, 0.16 µM and greater than 300 µM, respectively. The “6-OHDA rat MED (minimum effective dose)” value in assay [1] is on record as greater than 10 mg/kg.

Regarding `O=c1[nH]c2ccc([S+]([O-])CCN3CCC(O)(Cc4ccccc4)CC3)cc2o1` (stereo not drawn) [Example 8, 6-[2-(4-benzyl-4-hydroxypiperidin-1-yl)-ethanesulfinyl]-3H-benzooxazol-2-one], the IC50 at NRIA /2A worked out at 40 µM; at NR1A /2B it was 1.1 µM; on NR1A /2C, 230 µM.

As for `O=C(c1ccccc1)C1CCN(CC[S+]([O-])c2ccc3[nH]c(=O)oc3c2)CC1` (stereo not drawn) [Example 10, 6-[2-(4-benzoylpiperidin-1-yl)-ethanesulfinyl]-3H-benzooxazol-2-one], the figures for the IC50 on NRIA /2A, at NR1A /2B and on NR1A /2C were 70 µM, 0.34 µM and 140 µM, respectively.

On to `O=c1[nH]c2ccc([S+]([O-])CCN3CCC(O)(Cc4ccc(F)cc4)CC3)cc2o1` (stereo not drawn) [Example 9, 6-{2-[4-(4-fluorobenzyl)-4-hydroxy-piperidin-1-yl]-ethanesulfinyl}-3H-benzooxazol-2-one], for which the IC50 is 50 µM on NRIA /2A, 0.9 µM on NR1A /2B and 200 µM on NR1A /2C. Moreover, in assay [1], the “6-OHDA rat MED (minimum effective dose)” value is recorded as greater than 10 mg/kg.

As for `CC(=O)Nc1ccc(CC2CCN(CC[S+]([O-])c3ccc4[nH]c(=O)oc4c3)CC2)cc1` (stereo not drawn) [Example 16, N-(4-{1-[2-(2-oxo-2,3-dihydrobenzooxazol-6-sulfinyl)ethyl]piperidin-4-ylmethyl}phenyl)acetamide], the IC50 on NRIA /2A was greater than 300 µM; on NR1A /2B, 10 µM; on NR1A /2C, greater than 300 µM.

For `O=c1[nH]c2ccc([S+]([O-])CCN3CCC(Cc4ccc(Cl)cc4)CC3)cc2o1` (stereo not drawn) [Example 2, 6-{2-[4-(4-chloro-benzyl)-piperidin-1-yl]-ethanesulfinyl}-3H-benzooxazol-2-one], the results for the IC50 on NRIA /2A, at NR1A /2B and at NR1A /2C were greater than 300 µM, 0.02 µM and 200 µM, respectively. Further, in assay [1], the “6-OHDA rat MED (minimum effective dose)” value is on record as 3 mg/kg.

In the case of `O=c1[nH]c2ccc([S+]([O-])CCN3CCC(Cc4ccc(Cl)c(Cl)c4)CC3)cc2o1` (stereo not drawn) [Example 6, 6-{2-[4-(3,4-dichlorobenzyl)-piperidin-1-yl]-ethanesulfinyl}-3H-benzooxazol-2-one], the figures for the IC50 on NRIA /2A, on NR1A /2B and on NR1A /2C were 70 µM, 0.1 µM and 80 µM, respectively. Moreover, the “6-OHDA rat MED (minimum effective dose)” value in assay [1] is greater than 10 mg/kg.

As to `O=c1[nH]c2ccc([S+]([O-])CCN3CCC(Cc4ccc(F)cc4)CC3)cc2o1` (single isomer, unassigned; (-)) [Example 20, (-)-6-{2-[4,(4-fluorobenzyl)piperidin-1-yl]ethanesulfinyl}-3H-benzooxazol-2-one], the IC50 at NR1A /2B came out at 0.03 µM. Also, the “6-OHDA rat MED (minimum effective dose)” value in assay [1] is listed as 30 mg/kg.

As for `Cc1ccc(CC2CCN(CC[S+]([O-])c3ccc4[nH]c(=O)oc4c3)CC2)cc1` (stereo not drawn) [Example 3, 6-{2-[4-(4-methyl-benzyl)-piperidin-1-yl]-ethanesulfinyl}-3H-benzooxazol-2-one], the half-inhibitory concentration (IC50) on NRIA /2A is 100 µM; on NR1A /2B, 0.03 µM. In addition, the “6-OHDA rat MED (minimum effective dose)” value in assay [1] came to 3 mg/kg.

Turning to `O=c1[nH]c2ccc([S+]([O-])CCN3CCC(Cc4cccc(F)c4F)CC3)cc2o1` (stereo not drawn) [Example 11, 6-{2-[4-(2,3-difluorobenzyl)-piperidin-1-yl]-ethanesulfinyl}-3H-benzooxazol-2-one], the half-maximal inhibitory concentration (IC50) on NRIA /2A was determined as 40 µM; at NR1A /2B, 0.05 µM; at NR1A /2C, 140 µM. For the same compound, in assay [1], the “6-OHDA rat MED (minimum effective dose)” value was 10 mg/kg.

For the compound `O=c1[nH]c2ccc([S+]([O-])CCN3CCC(Cc4ccccc4)CC3)cc2o1` (stereo not drawn) [Example 4, 6-[2-(4-Benzyl-piperidin-1-yl)-ethanesulfinyl]-3H-benzooxazol-2-one], the IC50 was greater than 300 µM on NRIA /2A, 0.03 µM at NR1A /2B and greater than 300 µM on NR1A /2C. The “6-OHDA rat MED (minimum effective dose)” value in assay [1] is on record as 3 mg/kg.

Turning to `O=c1[nH]c2ccc([S+]([O-])CCN3CCC(Cc4ccc(Cl)cc4Cl)CC3)cc2o1` (stereo not drawn) [Example 15, 6-{2-[4-(2,4-dichlorobenzyl)-piperidin-1-yl]-ethanesulfinyl}-3H-benzooxazol-2-one], the IC50 worked out at 90 µM at NRIA /2A, 0.04 µM at NR1A /2B and 150 µM at NR1A /2C. Besides, in assay [1], the “6-OHDA rat MED (minimum effective dose)” value is listed as 10 mg/kg.

Consider `O=c1[nH]c2cc(Cl)c([S+]([O-])CCN3CCC(Cc4ccc(F)cc4)CC3)cc2o1` (stereo not drawn) [Example 18, 5-Chloro-6-{2-[4-(4-fluorobenzyl)piperidin-1-yl]ethanesulfinyl}-3H-benzooxazol-2-one], for which the IC50 was 35 µM on NRIA /2A, 0.11 µM on NR1A /2B and greater than 300 µM on NR1A /2C. The “6-OHDA rat MED (minimum effective dose)” value in assay [1] is greater than 10 mg/kg.

On to `O=c1[nH]c2ccc([S+]([O-])CCN3CCC(Cc4ccc(F)cc4)CC3)cc2o1` (single isomer, unassigned; (+)) [Example 19, (+)-6-{2-[4-(4-fluorobenzyl)piperidine-1-yl]ethanesulfinyl}-3H-benzooxazol-2-one], for which the IC50 on NR1A /2B came out at 0.03 µM. In assay [1], the “6-OHDA rat MED (minimum effective dose)” value came out at 1 mg/kg.

Turning to `O=c1[nH]c2ccc([S+]([O-])CCN3CCC(Cc4ccc(F)cc4F)CC3)cc2o1` (stereo not drawn) [Example 12, 6-{2-[4-(2,4-difluorobenzyl)-piperidin-1-yl]-ethanesulfinyl}-3H-benzooxazol-2-one], the values for the IC50 on NRIA /2A, on NR1A /2B and on NR1A /2C were 30 µM, 0.01 µM and 130 µM, respectively. Moreover, the “6-OHDA rat MED (minimum effective dose)” value in assay [1] amounted to 10 mg/kg.

As for `O=c1[nH]c2ccc([S+]([O-])CCN3CCC(Cc4ccccc4F)CC3)cc2o1` (stereo not drawn) [Example 7, 6-{2-[4-(2-fluorobenzyl)-piperidin-1-yl]-ethanesulfinyl}-3H-benzooxazol-2-one], the IC50 on NRIA /2A stood at 55 µM; on NR1A /2B, 0.09 µM; on NR1A /2C, 60 µM. In assay [1], the “6-OHDA rat MED (minimum effective dose)” value is 10 mg/kg.

In the case of `O=c1[nH]c2ccc([S+]([O-])CCN3CCC(Cc4c(F)cccc4F)CC3)cc2o1` (stereo not drawn) [Example 14, 6-{2-4[-(2,6-difluorobenzyl)-piperidin-1-yl]-ethanesulfinyl}-3H-benzooxazol-2-one], the IC50 on NRIA /2A was found to be 55 µM; on NR1A /2B, 0.04 µM; at NR1A /2C, 160 µM. For the same compound, the “6-OHDA rat MED (minimum effective dose)” value in assay [1] was greater than 10 mg/kg.

For `O=c1[nH]c2ccc([S+]([O-])CCN3CCC(Cc4ccc(F)cc4)CC3)cc2o1` (stereo not drawn) [Example 1, 6-[2-[4-(4-Fluoro-benzyl)-piperidin-1-yl]-ethanesulfinyl]-3H-benzooxazol-2-one], the IC50 was 105 µM at NRIA /2A, 0.03 µM on NR1A /2B and 190 µM on NR1A /2C. Also, the “6-OHDA rat MED (minimum effective dose)” value in assay [1] worked out at 1 mg/kg.

For the compound `O=c1[nH]c2ccc([S+]([O-])CCN3CCC(Cc4ccc(C(F)(F)F)cc4)CC3)cc2o1` (stereo not drawn) [Example 13], the IC50 at NRIA /2A came out at 35 µM; on NR1A /2B, 0.04 µM; on NR1A /2C, 150 µM. In assay [1], the “6-OHDA rat MED (minimum effective dose)” value is given as 10 mg/kg.
